Results from patent US12606541B2, “PPARg modulators and methods of use” (Eisai R&D Management Co., Ltd., priority 2020, dated 2026).
Read-outs that look alike come from different tables or passages of the source.

Columns and labels:
His6-TEV-PPARγ-(234-505) = molecular target: T1, His6-TEV-PPARγ-(234-505) (Homo sapiens, UniProt P37231); assay: TR-FRET Assay to Measure Co-R Peptide Recruitment to PPARγ; type: biochemical; conditions: Co-R peptide (SMRT-ID2) recruitment; top final concentration 20 μM; read-out: TR-FRET i-Ag; AC50
T1 construct: The His6-TEV-PPARγ-(234-505) protein for assay was expressed and purified; TEV cleavage site (N); made in house
T1 sequence (P37231 234-505): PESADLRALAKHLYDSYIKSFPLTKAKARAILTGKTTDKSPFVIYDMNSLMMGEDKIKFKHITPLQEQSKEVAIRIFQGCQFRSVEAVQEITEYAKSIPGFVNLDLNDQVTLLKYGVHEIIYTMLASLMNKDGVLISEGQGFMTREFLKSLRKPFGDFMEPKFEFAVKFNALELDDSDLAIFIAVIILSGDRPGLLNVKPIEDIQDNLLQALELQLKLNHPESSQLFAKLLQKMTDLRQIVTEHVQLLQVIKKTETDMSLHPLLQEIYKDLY
Summary of the method: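 His-tagged PPARγ (or controls) was preincubated with compound for 20 minutes at room temperature, then 5 nM anti-His terbium antibody and 200 nM FITC-labeled SMRT-ID2 corepressor peptide (final) were added for a further hour. TR-FRET signal was normalized to percent response using 500 nM T0070907 and DMSO controls.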

UM-UC-9 engineered cells = assay: Cell proliferation / short-term viability assay, CellTiter-Glo 144 h; type: cell-based, human; conditions: read-out: CTGlo 144 h UMUC9.5, G150
Summary of the method: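 UM-UC-9 engineered assay-ready cells seeded at 500 cells/well in high-glucose DMEM/10% FBS, treated from dose-response plates, grown at 37° C, 5% CO2. CellTiter-Glo 2.0 luminescence read on day 7, with a day-0 pretreatment plate as T0 reference and DMSO wells as negative control.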

Compound | AC50 (His6-TEV-PPARγ-(234-505)) [nM] | IC50 (UM-UC-9 engineered cells) [nM] | IC50 (UM-UC-9 engineered cells; Homo sapiens, UM-UC-9, 144 h) [nM]
COc1cc(-c2cc(C(=O)N3CCC(C(=O)NCC4CCNCC4(F)F)CC34CC4)n[nH]2)c(F)cn1 (mixture of isomers) [Example 511, (S)—N—(((S)-3,3-difluoropiperidin-4-yl)methyl)-4-(5-(5-fluoro-2-methoxypyridin-4-yl)-1H-pyrazole-3-carbonyl)-4-azaspiro[2.5]octane-7-carboxamide and (S)—N—(((R)-3,3-difluoropiperidin-4-yl)methyl)-4-(5-(5-fluoro-2-methoxypyridin-4-yl)-1H-pyrazole-3-carbonyl)-4-azaspiro[2.5]octane-7-carboxamide] | 10.6 | 95.2 | –
COc1cc(-c2cc(C(=O)N3CC[C@H](C(=O)NCC45CCC(O)(CC4)CC5)CC34CC4)n[nH]2)c(F)cn1 (single isomer, unassigned) [Example 313-B] | 3.5 | – | 13.9
COc1cc(-c2cc(C(=O)N3CCC(C(=O)NCc4cccc5cc[nH]c45)CC3)n[nH]2)c(Cl)cn1 [Example 194, N-((1H-indol-7-yl)methyl)-1-(5-(5-chloro-2-methoxypyridin-4-yl)-1H-pyrazole-3-carbonyl)piperidine-4-carboxamide] | 808 | – | 484
COc1cc(-c2cc(C(=O)N3CCC(C(=O)NC4CCN(c5ccc(F)cc5)C4)CC3)n[nH]2)c(Cl)cn1 (racemic) [Example 253, 1-(5-(5-chloro-2-methoxypyridin-4-yl)-1H-pyrazole-3-carbonyl)-N-(1-(4-fluorophenyl)pyrrolidin-3-yl)piperidine-4-carboxamide] | 51 | – | 387
COc1cc(-c2cc(C(=O)N3CC[C@@H](C(=O)N[C@H]4CC[C@@](O)(C(F)(F)F)CC4)CC34CC4)n[nH]2)c(Cl)cn1 (single isomer, unassigned) [Example 286-A] | 304 | – | 460
COc1cc(-c2cc(C(=O)N3CCC(C(=O)NCC4CCc5[nH]ncc5C4)CC34CC4)n[nH]2)c(F)cn1 (single isomer, unassigned) [Example 341-A] | 6.1 | 6.6 | –
COc1cc(-c2cc(C(=O)N3CCC(C(=O)NCc4ccc5cc[nH]c5c4)CC3)n[nH]2)c(Cl)cn1 [Example 188, N-((1H-indol-6-yl)methyl)-1-(5-(5-chloro-2-methoxypyridin-4-yl)-1H-pyrazole-3-carbonyl)piperidine-4-carboxamide] | 79.8 | – | 211
COc1cc(-c2cc(C(=O)N3[C@@H]4CC[C@H]3C[C@H](C(=O)N[C@H]3CC[C@](O)(C(F)(F)F)CC3)C4)n[nH]2)c(F)cn1 [Example 170-B, (1R,3s,5S)-8-(5-(5-fluoro-2-methoxypyridin-4-yl)-1H-pyrazole-3-carbonyl)-N-((1s,4S)-4-hydroxy-4-(trifluoromethyl)cyclohexyl)-8-azabicyclo[3.2.1]octane-3-carboxamide] | 1110 | – | 3560
COc1cc(-c2cc(C(=O)N3CCC(C(=O)NCc4c(F)ccc5[nH]cnc45)CC3)n[nH]2)c(Cl)cn1 [Example 243, 1-(5-(5-chloro-2-methoxypyridin-4-yl)-1H-pyrazole-3-carbonyl)-N-((5-fluoro-1H-benzo[d]imidazol-4-yl)methyl)piperidine-4-carboxamide] | 25.8 | – | 414
COc1cc(-c2cc(C(=O)N3CCC(C(=O)NCC4CCn5c(C)nnc5C4)CC34CC4)n[nH]2)c(F)cn1 (single isomer, unassigned) [Example 346-A] | 504 | 2790 | –
COc1cc(-c2cc(C(=O)N3CCC(C(=O)N[C@@H]4C[C@H]4c4ccccc4)CC3)n[nH]2)c(Cl)cn1 [Example 133, 1-(5-(5-chloro-2-methoxypyridin-4-yl)-1H-pyrazole-3-carbonyl)-N-((1R,2S)-2-phenylcyclopropyl)piperidine-4-carboxamide] | 292 | – | 1740
COc1cc(-c2cc(C(=O)N3CCC(F)(C(=O)NCc4cccc(Cl)c4)CC3)n[nH]2)c(Cl)cn1 [Example 174, 1-(5-(5-chloro-2-methoxypyridin-4-yl)-1H-pyrazole-3-carbonyl)-N-(3-chlorobenzyl)-4-fluoropiperidine-4-carboxamide] | 125 | – | 407
COc1cc(-c2cc(C(=O)N3CCC(C(=O)NC4c5ccccc5OC4C)CC3)n[nH]2)c(Cl)cn1 (stereo not drawn) [Example 265, 1-(5-(5-chloro-2-methoxypyridin-4-yl)-1H-pyrazole-3-carbonyl)-N-(2-methyl-2,3-dihydrobenzofuran-3-yl)piperidine-4-carboxamide] | 87.7 | – | 458
COc1cc(-c2cc(C(=O)N3CCC(C(=O)NCc4cn5cc(Cl)ccc5n4)CC3)n[nH]2)c(Cl)cn1 [Example 219, 1-(5-(5-chloro-2-methoxypyridin-4-yl)-1H-pyrazole-3-carbonyl)-N-((6-chloroimidazo[1,2-a]pyridin-2-yl)methyl)piperidine-4-carboxamide] | 94.5 | – | 1610
N#Cc1cc(-c2cc(C(=O)N3CCC(C(=O)NC4CCC(O)(C(F)(F)F)CC4)CC34CC4)n[nH]2)ncn1 (racemic) [Example 528, (R)-4-(5-(6-cyanopyrimidin-4-yl)-1H-pyrazole-3-carbonyl)-N-((1r,4R)-4-hydroxy-4-(trifluoromethyl)cyclohexyl)-4-azaspiro[2.5]octane-7-carboxamide and (S)-4-(5-(6-cyanopyrimidin-4-yl)-1H-pyrazole-3-carbonyl)-N-((1r,4S)-4-hydroxy-4-(trifluoromethyl)cyclohexyl)-4-azaspiro[2.5]octane-7-carboxamide] | 6 | 479 | –
Cc1cc(-c2cc(C(=O)N3CCC(C(=O)NC4CCC(O)(C(F)(F)F)CC4)CC34CC4)n[nH]2)ncn1 (single isomer, unassigned) [Example 339-A] | 476 | 3800 | –
COc1cc(-c2cc(C(=O)N3CCC(C(=O)NCC45CCC(O)(CC4)C5)CC34CC4)n[nH]2)c(F)cn1 (single isomer, unassigned) [Example 333-A] | 1960 | 9440 | –

The next lines start with results.

AC50 (His6-TEV-PPARγ-(234-505)) [nM] | Compound | IC50 (UM-UC-9 engineered cells) [nM] | IC50 (UM-UC-9 engineered cells; Homo sapiens, UM-UC-9, 144 h) [nM]
1600 | COc1cc(-c2cc(C(=O)N3CC[C@H](C(=O)NC4CCC5CCCN5C4)CC34CC4)n[nH]2)c(F)cn1 (single isomer, unassigned) [Example 376-B] | 3880 | –
6 | COc1cc(-c2cc(C(=O)N3CC[C@H](C(=O)NCc4ncc(F)cc4C(F)(F)F)CC34CC4)n[nH]2)c(F)cn1 [Example 363, (S)-4-(5-(5-fluoro-2-methoxypyridin-4-yl)-1H-pyrazole-3-carbonyl)-N-((5-fluoro-3-(trifluoromethyl)pyridin-2-yl)methyl)-4-azaspiro[2.5]octane-7-carboxamide] | – | 3.5
375 | COc1cc(-c2cc(C(=O)N3CC[C@H](C(=O)NC4CCN(C5COC56CNC6)C4)CC34CC4)n[nH]2)c(F)cn1 (single isomer, unassigned) [Example 461-C] | > 10000 | –
209 | COc1cc(-c2cc(C(=O)N3CC[C@H](C(=O)NC4CCC(C)(C)N(C)C4)CC34CC4)n[nH]2)c(F)cn1 (single isomer, unassigned) [Example 424-B] | 929 | –
1.8 | COc1cc(-c2cc(C(=O)N3CC[C@H](C(=O)NCc4ncc(N5CCN(C)CC5)cc4Cl)CC34CC4)n[nH]2)c(F)cn1 [Example 521, (S)—N-((3-chloro-5-(4-methylpiperazin-1-yl)pyridin-2-yl)methyl)-4-(5-(5-fluoro-2-methoxypyridin-4-yl)-1H-pyrazole-3-carbonyl)-4-azaspiro[2.5]octane-7-carboxamide] | – | 19.8
10 | COc1cc(-c2cc(C(=O)N3CC[C@H](C(=O)NCC45CC(C(F)(F)F)(CO4)C5)CC34CC4)n[nH]2)c(F)cn1 [Example 365, (S)-4-(5-(5-fluoro-2-methoxypyridin-4-yl)-1H-pyrazole-3-carbonyl)-N-((4-(trifluoromethyl)-2-oxabicyclo[2.1.1]hexan-1-yl)methyl)-4-azaspiro[2.5]octane-7-carboxamide] | – | 21.9
4.2 | COc1cc(-c2cc(C(=O)N3CC[C@H](C(=O)NCc4cn(C)nc4C(F)(F)F)CC34CC4)[nH]n2)c(F)cn1 [Example 509, (S)-4-(3-(5-fluoro-2-methoxypyridin-4-yl)-1H-pyrazole-5-carbonyl)-N-((1-methyl-3-(trifluoromethyl)-1H-pyrazol-4-yl)methyl)-4-azaspiro[2.5]octane-7-carboxamide] | – | 7
11 | COc1cc(-c2cc(C(=O)N3CC[C@H](C(=O)Nc4cnn5ccc(C(C)O)nc45)CC34CC4)n[nH]2)c(F)cn1 (single isomer, unassigned) [Example 445-B] | 116 | –
4.6 | COc1cc(-c2cc(C(=O)N3CCC(C(=O)NC4CCC(O)(C(F)(F)F)C(O)C4)CC34CC4)n[nH]2)c(F)cn1 (mixture of isomers) [Example 474-B] | 50.6 | –
6.8 | COc1cc(-c2cc(C(=O)N3CC[C@H](C(=O)NC4CCN(c5ccnc6[nH]ncc56)C4)CC34CC4)n[nH]2)c(F)cn1 (single isomer, unassigned) [Example 450-B] | 834 | –
